The nature of this series: Measurement of solubility of electron-accepting compound to solvent (saturated solution, gravimetric). The class given is physicochemical. As to conditions: for Electron-accepting compound Solubility to ethanol: Table 2, repeated per forming liquid, 20° C.; for Solubility, alcohol solvent ethanol / Solubility, ester solvent ethyl acetate / Solubility, alcohol solvent isopropyl alcohol / Solubility, alcohol solvent methanol / Solubility, ketone solvent methyl ethyl ketone / Solubility, aromatic solvent toluene: saturated solution at 20° C.±3° C. The method, then:
<Measurement of Solubility of Electron-Accepting Compound to Solvent> […]
(2) While stirring a stirrer or a stirring rod, an electron-accepting compound was added gradually until insoluble matter of the electron-accepting compound appears at the bottom of the beaker.
(3) The resultant was left to stand for 1 hour or longer with a lid placed on top of the beaker.
(4) If the insoluble matter was completely disappeared by stirring with the stirring rod, the processes (2) to (4) were repeated.
(5) If the insoluble matter was remained after standing for 1 hour or longer, it was determined that preparation of a saturated solution was completed.
A weight (A) of an aluminium cup was weighed with the minimum unit of 1 mg or less.
The part of the transparent supernatant liquid of the saturated solution prepared in 1 was collected by a pipette, and the collected liquid was placed in the aluminium cup (about 0.8 g to about 1.3 g in weight) and a weight of the liquid was weighed with the minimum unit of 1 mg or less.
The aluminium cup in which the liquid was collected was placed in a dryer (120° C.±10° C.). Alternatively, the aluminium cup in which the liquid was collected is placed on a hot plate (120° C.±10° C.) in an area where a local ventilation was installed.
The solvent was evaporated from the liquid for 25 minutes or longer (a lid was placed to prevent inclusion of dusts when a hot plate was used).
The aluminium cup was removed from the drier or hot plate, and was left to stand for 1 minute or longer indoor, followed by weighing the total amount (C) with a unit of 1 mg or less.

For `Oc1ccc(C2(c3ccc(O)cc3)c3ccccc3-c3ccccc32)cc1` [Electron-Accepting Compound 1, 9,9-Bis(4-hydroxyphenyl)fluorene], the “Electron-accepting compound Solubility to ethanol” value amounted to 4.7 % by mass; the “Solubility, alcohol solvent ethanol” value is given as 4.7 % by mass; the “Solubility, ester solvent ethyl acetate” value stood at 9.0 % by mass; the “Solubility, alcohol solvent isopropyl alcohol” value came to 4.5 % by mass. Besides, the “Solubility, alcohol solvent methanol” value is listed as 24.8 % by mass; the “Solubility, ketone solvent methyl ethyl ketone” value was determined as 30.2 % by mass; the “Solubility, aromatic solvent toluene” value was 0.7 % by mass.
Regarding `Cc1ccc(S(=O)(=O)NC(=O)Nc2cccc(OS(=O)(=O)c3ccc(C)cc3)c2)cc1` [Electron-Accepting Compound 4, N-p-toluenesulfonyl-N′-3-(p-toluenesulfonyloxyphenyl)urea], the “Electron-accepting compound Solubility to ethanol” value came out at 0.4 % by mass; the “Solubility, alcohol solvent ethanol” value stood at 0.4 % by mass; the “Solubility, ester solvent ethyl acetate” value stood at 2.1 % by mass; the “Solubility, alcohol solvent isopropyl alcohol” value amounted to 0.4 % by mass. Further, the “Solubility, alcohol solvent methanol” value is 0.8 % by mass; the “Solubility, ketone solvent methyl ethyl ketone” value was 12.7 % by mass; the “Solubility, aromatic solvent toluene” value was found to be 0.1 % by mass.
With `Cc1ccc(S(=O)(=O)Oc2cccc(NC(=O)Nc3cccc(OS(=O)(=O)c4ccc(C)cc4)c3)c2)cc1` [Electron-Accepting Compound 5, N,N′-di-[3-(p-toluenesulfonyloxy)phenyl]urea], the “Electron-accepting compound Solubility to ethanol” value is on record as 0.1 % by mass; the “Solubility, alcohol solvent ethanol” value amounted to 0.1 % by mass; the “Solubility, ester solvent ethyl acetate” value is recorded as 1.3 % by mass; the “Solubility, alcohol solvent isopropyl alcohol” value turned out to be 0.1 % by mass. Also, the “Solubility, alcohol solvent methanol” value came out at 0.1 % by mass; the “Solubility, ketone solvent methyl ethyl ketone” value came to 11.3 % by mass; the “Solubility, aromatic solvent toluene” value came out at 0.1 % by mass.
Regarding `O=S(=O)(c1ccc(O)cc1)c1ccc(O)cc1` [Electron-Accepting Compound 6, 4,4′-sulfonylbisphenol, reference compound], the “Electron-accepting compound Solubility to ethanol” value is recorded as 34.1 % by mass; the “Solubility, alcohol solvent ethanol” value worked out at 34.1 % by mass; the “Solubility, ester solvent ethyl acetate” value came to 9.7 % by mass; the “Solubility, alcohol solvent isopropyl alcohol” value was 34.1 % by mass. In addition, the “Solubility, alcohol solvent methanol” value was found to be 33.7 % by mass; the “Solubility, ketone solvent methyl ethyl ketone” value is 36.5 % by mass; the “Solubility, aromatic solvent toluene” value was found to be 0.1 % by mass.
As for `Cc1ccc(S(=O)(=O)Oc2cccc(NC(=O)Nc3ccccc3)c2)cc1` [Electron-Accepting Compound 3], the “Electron-accepting compound Solubility to ethanol” value is given as 0.6 % by mass; the “Solubility, alcohol solvent ethanol” value worked out at 0.6 % by mass; the “Solubility, ester solvent ethyl acetate” value is given as 1.6 % by mass; the “Solubility, alcohol solvent isopropyl alcohol” value worked out at 0.8 % by mass. For the same molecule, the “Solubility, alcohol solvent methanol” value was 0.6 % by mass; the “Solubility, ketone solvent methyl ethyl ketone” value came to 8.1 % by mass; the “Solubility, aromatic solvent toluene” value was 0.1 % by mass.
